Measurements taken from patent US9375000B2, “Pesticidal arylpyrrolidines” (Bayer Intellectual Property GmbH, priority 2011, dated 2016).

Legend:
Type in all cases: in vivo
[1] = tested on: Two-Spotted Spider Mite (Tetranychus urticae); assay: Two-spotted spider mite (Tetranychus urticae) spray test on kidney bean; conditions: after 7 days
In short: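 Kidney bean plants at the two-leaf stage carried 50-100 adult mites and were sprayed one day later with compound in DMF/polyoxyethylene alkyl phenyl ether diluted in water. Ammonium salt and penetration enhancer at 1000 ppm were added if needed. Acaricidal activity (% mites killed) was scored after 7 days in a greenhouse.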

[2] = tested on: Cucurbit Leaf Beetle (Aulacophora femoralis); assay: Cucurbit leaf beetle (Aulacophora femoralis) cucumber leaf dip test; conditions: active compound concentration 20 ppm; after 7 days
In short: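 Cucumber leaves dipped in compound formulated with DMF and polyoxyethylene alkyl phenyl ether, diluted in water, with ammonium salt or ammonium salt plus penetration enhancer at 1000 ppm added if necessary; dried leaves placed on sterilized soil with five second-instar larvae. Kept at 25° C; larval mortality counted after 7 days.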

[3] = tested on: Thrips palmi; assay: Thrips palmi spray test (THRIPL); conditions: after 6 days
Method: (§1) Unless not mentioned otherwise, the test solutions were prepared as follows:
(§2) Solvent: 3 parts by weight Dimethylformamide
(§3) Emulsifier: 1 part by weight Polyoxyethylene alkyl phenyl ether
(§4) In order to make an appropriate formulation of an active compound, 1 part by weight of the active compound is mixed with the above mentioned amount of solvent and emulsifier and the mixture is diluted with water to a prescribed concentration. Ammonium salt or ammonium salt and penetration enhancer in a dosage of 1000 ppm are added to the desired concentration if necessary.
The compound solutions are sprayed to a cucumber seedling (Cucumis sativus). After drying, the treated plant is placed in a plastic stand. About 100 thrips-eggs (Thrips palmi) on a piece of filter paper are attached to the plant and covered with a cage to keep 100% humidity. The plant is kept in a room at 23° C. After 6 days activity in % is evaluated by feeding damage degree. An insecticidal activity of 100 means that there was no feeding damage, whereas an insecticidal activity of 0% means that there is no difference to the untreated control.

[4] = tested on: Tobacco Cutworm (Spodoptera litura) Larvae; assay: Tobacco cutworm (Spodoptera litura) larvae, sweet potato leaf dip test; conditions: dead larvae after 7 days
Method: as §1, §2, §3, §4
Leaves of sweet potato were immersed in the test solution at the appropriate concentration, and the leaves were dried in air. The leaves were then placed in a petri dish having a diameter of 9 cm, and ten Spodoptera litura at third instar larvae were released therein. The petri dishes were placed in a temperature-controlled chamber at 25° C. After 2 days and 4 days more sweet potato leaves were added. After 7 days, the number of dead larvae was counted to calculate the insecticidal activity. An insecticidal activity of 100% means that all larvae were killed, whereas an insecticidal activity of 0% means that no larva was killed. In the current test, the results of two petri dishes for each treatment were averaged.

[5] = tested on: Larvae of Spodoptera litura; assay: Larvae of Spodoptera litura, method using artificial feeds; conditions: active compound concentration 20 ppm; artificial feed; after 7 days
In short: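 Compound formulated in dimethylformamide with polyoxyethylene alkyl phenyl ether emulsifier, water-diluted and poured onto artificial diet. Five 3rd-instar Spodoptera litura larvae per cup, held at 25° C and 50-60% humidity. Mortality after 7 days expressed as pesticidal ratio.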

[6] = active compound concentration 20 ppm
[7] = active compound concentration 100 ppm
[8] = active compound concentration 4 ppm

Row | SMILES | acaricidal activity [1, 6] | insecticidal activity [2] | insecticidal activity (by feeding damage degree) [3, 7] | insecticidal activity [4, 8] | acaricidal activity [1, 8] | insecticidal activity (by feeding damage degree) [3, 6] | insecticidal activity (pesticidal ratio) [5] | insecticidal activity [4, 6]
1 | CS(=O)(=O)CC(=O)NCc1cnc(N2CCC(c3cc(Cl)c(Cl)c(Cl)c3)(C(F)(F)F)C2O)cc1C(F)(F)F (stereo not drawn) [A5-22] | 100% | 100% | 98% | 100% |  |  |  | 
2 | CCC(=O)NCc1cnc(N2CCC(c3cc(Cl)c(F)c(Cl)c3F)(C(F)(F)F)C2O)cc1C(F)(F)F (stereo not drawn) [A5-79] |  |  |  | 100% | 100% | 90% |  | 
3 | CCC(=O)NCc1ccc(N2CCC(c3cc(F)c(F)c(F)c3)(C(F)(F)F)C2O)nc1C(F)(F)F (mixture of isomers) [A3-189] |  | 100% |  | 80% |  |  |  | 
4 | O=C(CC(F)(F)F)NCc1cnc(N2CCC(c3cc(Cl)cc(Cl)c3)(C(F)(F)F)C2O)nc1C(F)(F)F (stereo not drawn) [A4-7] |  | 100% |  | 100% | 100% | 90% |  | 
5 | O=C(NCc1ccc(N2CCC(c3cc(F)cc(Cl)c3)(C(F)(F)F)C2O)cc1C(F)(F)F)C1CC1 (stereo not drawn) [A1-242] |  | 100% |  | 100% | 100% | 90% |  | 
6 | O=C(CC(F)(F)F)NCc1ccc(N2CCC(c3cc(Cl)cc(Cl)c3)(C(F)(F)F)C2O)cc1Br (mixture of isomers) [A1-112] |  | 100% |  | 100% | 100% | 98% |  | 
7 | CCC(=O)NCc1cnc(N2CCC(c3cc(Cl)cc(Cl)c3)(C(F)(F)F)C2O)nc1C(F)(F)F (stereo not drawn) [A4-2] |  |  |  | 100% |  |  |  | 
8 | O=C(NCc1ccc(N2CC(c3cc(Cl)c(Cl)c(Cl)c3)(C(F)(F)F)CC2=O)nc1C(F)(F)F)C1CC1 (stereo not drawn) [C3-16] |  |  |  |  |  |  | 100% | 100%
9 | O=C(NCc1ccc(N2CCC(c3cc(Cl)c(Cl)c(Cl)c3)(C(F)(F)F)C2O)nc1C(F)(F)F)C1CC1 (stereo not drawn) [A3-16] | 100% | 100% |  |  |  |  | 100% | 100%
10 | CCC(=O)NCc1ccc(N2CCC(c3cc(F)cc(Cl)c3)(C(F)(F)F)C2O)nc1C(F)(F)F (mixture of isomers) [A3-167] | 90% |  |  | 80% |  |  |  | 
11 | O=C(NCc1ccc(N2CCC(c3cc(C(F)(F)F)cc(C(F)(F)F)c3)(C(F)(F)F)C2=O)cc1Cl)C1CC1 (stereo not drawn) [B1-27] |  |  |  |  |  |  | 100% | 100%
12 | O=C(NCc1ccc(N2CCC(c3cc(C(F)(F)F)cc(C(F)(F)F)c3)(C(F)(F)F)C2O)nc1C(F)(F)F)C1CC1 (stereo not drawn) [A3-27] | 100% | 100% |  |  |  |  | 100% | 100%
13 | CC(=O)NCc1ccc(N2CCC(c3cc(Cl)c(F)c(Cl)c3F)(C(F)(F)F)C2O)nc1C(F)(F)F (mixture of isomers) [A3-210] |  | 100% |  | 100% | 100% |  |  | 
14 | CCc1nc(N2CCC(c3cc(Cl)c(Cl)c(Cl)c3)(C(F)(F)F)C2O)ccc1CNC(=O)C1CC1 (stereo not drawn) [A3-93] | 100% | 100% |  | 100% |  |  |  | 
15 | CC(NC(=O)C1CC1)c1ccc(N2CC(c3cc(C(F)(F)F)cc(C(F)(F)F)c3)(C(F)(F)F)CC2=O)cc1 (stereo not drawn) [C2-27-b] | 100% | 100% |  |  |  |  | 100% | 100%
16 | CCC(=O)NCc1ccc(N2CCC(c3cc(Cl)c(Cl)c(Cl)c3)(C(F)(F)F)C2O)cc1 (stereo not drawn) [A1-384] |  | 100% |  | 100% | 98% | 90% |  | 
17 | CC(=O)NCc1cnc(N2CCC(c3cc(Cl)c(Cl)c(Cl)c3)(C(F)(F)F)C2O)nc1C(F)(F)F (stereo not drawn) [A4-12] |  |  |  | 100% | 100% | 90% |  | 
18 | CC(=O)NCc1cnc(N2CCC(c3cc(Cl)c(F)c(Cl)c3F)(C(F)(F)F)C2O)cc1C(F)(F)F (stereo not drawn) [A5-78] |  | 100% |  | 100% | 100% |  |  | 

Row | SMILES | acaricidal activity [1, 6] | insecticidal activity [2] | insecticidal activity (by feeding damage degree) [3, 7] | insecticidal activity [4, 8] | acaricidal activity [1, 8] | insecticidal activity (by feeding damage degree) [3, 6] | insecticidal activity (pesticidal ratio) [5] | insecticidal activity [4, 6]
19 | O=C(NCc1ccc(N2CCC(c3cc(Cl)c(Cl)c(C(F)(F)F)c3)(C(F)(F)F)C2O)cc1C(F)(F)F)C1CC1 (stereo not drawn) [A1-352] | 100% | 100% |  | 100% |  |  |  | 
20 | O=C(NCc1ccc(N2CCC(c3cc(Cl)c(Cl)c(Cl)c3)(C(F)(F)F)C2=O)nc1C(F)(F)F)C1CC1 (stereo not drawn) [B3-16] |  |  |  |  |  |  | 100% | 100%
21 | O=C(NCc1cnc(N2CCC(c3cc(Cl)c(Cl)c(Cl)c3)(C(F)(F)F)C2O)cc1C(F)(F)F)C1CC1 (stereo not drawn) [A5-16] | 100% | 100% | 100% | 100% |  |  |  | 
22 | CCC(=O)NCc1ccc(N2CCC(c3cc(Cl)c(Cl)c(C(F)(F)F)c3)(C(F)(F)F)C2O)cc1C(F)(F)F (stereo not drawn) [A1-349] | 100% | 100% |  | 100% |  |  |  | 
23 | O=C(CC(F)(F)F)NCc1ccc(N2CCC(c3cc(Cl)cc(Cl)c3)(C(F)(F)F)C2O)cc1F (mixture of isomers) [A1-101] |  | 100% |  | 80% | 100% |  |  | 
24 | CC(=O)NCc1cnc(N2CCC(c3cc(Cl)c(F)c(Cl)c3F)(C(F)(F)F)C2O)nc1C(F)(F)F (stereo not drawn) [A4-111] |  | 100% |  | 100% | 100% |  |  | 
25 | CCC(=O)NCc1ccc(N2CCC(c3cc(Cl)c(Cl)c(Cl)c3)(C(F)(F)F)C2O)nc1Cl (stereo not drawn) [A3-101] |  | 100% |  | 100% | 100% | 98% |  | 
26 | CC(=O)NCc1ccc(N2CCC(c3cc(Cl)c(Cl)c(C(F)(F)F)c3)(C(F)(F)F)C2O)cc1C(F)(F)F (stereo not drawn) [A1-348] | 100% | 100% |  | 100% |  |  |  | 
27 | CS(=O)(=O)CC(=O)NCc1cnc(N2CCC(c3cc(Cl)cc(Cl)c3)(C(F)(F)F)C2O)nc1C(F)(F)F (stereo not drawn) [A4-11] |  |  |  | 100% | 100% | 90% |  | 
28 | CC(=O)NCc1ccc(N2CCC(c3cc(Cl)c(F)c(Cl)c3)(C(F)(F)F)C2O)cc1C(F)(F)F (stereo not drawn) [A1-271] |  |  |  | 100% | 100% |  |  | 
29 | CCC(=O)NC(C)c1ccc(N2CCC(c3cc(Cl)c(Cl)c(Cl)c3)(C(F)(F)F)C2O)cc1 (mixture of isomers) [A2-13] | 100% |  |  |  |  |  | 100% | 100%
30 | O=C(NCc1ccc(N2CC(c3cc(Cl)c(Cl)c(Cl)c3)(C(F)(F)F)CC2O)nc1C(F)(F)F)C1CC1 (stereo not drawn) [A′3-16] |  | 100% |  | 100% |  |  |  | 
31 | O=C(NCc1cnc(N2CCC(c3cc(Cl)cc(Cl)c3)(C(F)(F)F)C2O)nc1C(F)(F)F)C1CC1 (stereo not drawn) [A4-5] |  | 100% |  | 100% | 100% | 90% |  | 
32 | O=C(NCc1ccc(N2CCC(c3cc(F)c(F)c(F)c3)(C(F)(F)F)C2O)nc1C(F)(F)F)C1CC1 (mixture of isomers) [A3-192] |  | 100% |  | 100% |  |  |  | 
33 | CCC(=O)NCc1ccc(N2CCC(c3cc(Cl)c(Cl)c(Cl)c3)(C(F)(F)F)C2O)cc1CC (mixture of isomers) [A1-140] |  |  |  | 100% | 98% |  |  | 
34 | O=C(NCc1ccc(N2CC(c3cc(C(F)(F)F)cc(C(F)(F)F)c3)(C(F)(F)F)CC2=O)nc1Cl)C1CC1 (stereo not drawn) [C1-27] |  | 100% |  |  |  |  | 100% | 100%
35 | CCC(=O)NCc1ccc(N2CCC(c3cc(C(F)(F)F)cc(C(F)(F)F)c3)(C(F)(F)F)C2O)cc1CC (mixture of isomers) [A1-195] |  | 100% |  | 100% | 100% |  |  | 
